Measurements as given in PMC8112869, “Therapeutic inhibition of keratinocyte TRPV3 sensory channel by local anesthetic dyclonine” (eLife, 2021).

What was measured:
TRPV3 F666A = biological target: T1, TRPV3 F666A (Mus musculus, UniProt Q8K424, F666A); experiment: Whole-cell recording of TRPV3 mutant F666A in HEK 293T cells; format: cell-based; conditions: 2-APB (1 mM)-evoked, –60 mV, read-out: IC50 for inhibition of TRPV3 mutant
T1 construct: expressed in transfected cells; host or cells: HEK 293T
Description: (§1) The WT mouse TRPV3 (mTRPV3), human TRPV3 (hTRPV3), rat TRPV1, rat TRPV2, rat TRPM8, and mouse TRPA1 cDNAs were generously provided by Dr. Feng Qin (State University of New York at Buffalo, Buffalo, USA). The GFP-mTRPV3 WT and the mutants (mTRPV3-G573S and mTRPV3-G573C) in pcDNA4/TO vector were gifts from Dr. Michael X Zhu (The University of Texas Health Science Center at Houston, Houston, USA). The WT fTRPV3 was kindly provided by Dr. Makoto Tominaga (Department of Physiological Sciences, SOKENDAI, Okazaki, Japan). All mutations were made using the overlap-extension polymerase chain reaction method as previously described ([Tian et al., 2019]). The resulting mutations were then verified by DNA sequencing. […]
(§2) Conventional whole-cell and excised patch-clamp recording methods were used. […] For a subset of recordings, currents were amplified using an Axopatch 200B amplifier (Molecular Devices, Sunnyvale, CA) and recorded through a BNC-2090/MIO acquisition system (National Instruments, Austin, TX) using QStudio developed by Dr. Feng Qin at State University of New York at Buffalo. […] As determined by the conductance tests, the solution around a patch under study was fully controlled by the application of a flow rate of 100 μl/min or greater. […]

TRPV3 (G573C) = biological target: T2, TRPV3 (G573C) (Mus musculus, UniProt Q8K424, G573C); experiment: Whole-cell currents of TRPV3 (G573C) expressed in T-Rex 293 cells; format: cell-based
T2 construct: expressed in transfected cells; host or cells: T-Rex 293
Description: as §1, §2

T2 sequence (Q8K424 whole entry G573C): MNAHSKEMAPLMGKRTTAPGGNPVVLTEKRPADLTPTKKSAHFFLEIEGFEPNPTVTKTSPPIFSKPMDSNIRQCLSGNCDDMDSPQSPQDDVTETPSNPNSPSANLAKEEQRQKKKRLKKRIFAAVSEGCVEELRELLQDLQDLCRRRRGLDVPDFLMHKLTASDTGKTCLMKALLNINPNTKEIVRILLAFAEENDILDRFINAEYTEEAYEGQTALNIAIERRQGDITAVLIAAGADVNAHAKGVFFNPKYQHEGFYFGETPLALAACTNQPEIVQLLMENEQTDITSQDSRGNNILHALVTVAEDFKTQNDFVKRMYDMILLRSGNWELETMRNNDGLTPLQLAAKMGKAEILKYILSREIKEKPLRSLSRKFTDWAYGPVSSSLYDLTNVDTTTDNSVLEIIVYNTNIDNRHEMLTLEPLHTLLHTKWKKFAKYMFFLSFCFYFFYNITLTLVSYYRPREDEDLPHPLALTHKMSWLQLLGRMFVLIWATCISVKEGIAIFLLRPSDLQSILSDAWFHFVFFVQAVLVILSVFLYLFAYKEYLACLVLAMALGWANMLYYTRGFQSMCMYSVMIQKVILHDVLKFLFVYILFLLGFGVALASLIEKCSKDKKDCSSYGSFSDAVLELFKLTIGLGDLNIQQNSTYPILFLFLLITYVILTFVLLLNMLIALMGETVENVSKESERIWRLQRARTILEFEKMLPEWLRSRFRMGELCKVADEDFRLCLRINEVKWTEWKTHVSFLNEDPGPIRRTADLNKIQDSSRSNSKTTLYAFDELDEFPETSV
T1 sequence (Q8K424 whole entry F666A): as the sequence (Q8K424 whole entry G573C) above, with C573G, F666A counted along it

## CCCCOc1ccc(C(=O)CCN2CCCCC2)cc1 [dyclonine]
TRPV3 F666A
  IC50: 414 ± 15.7 µM
TRPV3 (G573C); 10 μM dyclonine, –60 mV, leak subtracted with 20 μM RR
  reduction of spontaneous activities: 71% ± 2%
TRPV3 (G573C); presence of dyclonine
  300 μM 2-APB-evoked responses, of control level: 11% ± 1%
